# Tests used:
# [1] = PK profile of the Day 1, 3 and 5 oral dosing regimen (drug levels); type: in vivo, human
# From the text: This study investigated the efficacy, safety and tolerability of two different dosing regimens of 3-[5-amino-4-(3-cyanobenzoyl)-pyrazol-1-yl]-N-cyclopropyl-4-methyl benzamide added to SoC (systemic corticosteroids and/or antibiotics) versus placebo added to SoC in subjects with severe acute exacerbations of asthma. The proposed doses take into account trough levels based on PK modelling to ensure that the drug rapidly achieves and remains at effective concentrations between doses.
# Overall, a dose-dependent reduction in TNF-α levels has been observed following doses ranging from 0.1 to 75 mg 3-[5-amino-4-(3-cyanobenzoyl)-pyrazol-1-yl]-N-cyclopropyl-4-methylbenzamide, although flattening of this effect to between 45 to 50% of placebo levels occurred between doses of 30 and 75 mg. A number of PK studies have been performed looking at both dosing intervals (Days 1, 3 and 5 (FIGS. 1-4, top panels) versus Days 1, 4 and 7 (FIGS. 1-4 bottom panels)), as well as dose levels (approximately 75/40/40 mg (FIG. 1); approximately 75/20/20 (FIG. 2); approximately 40/40/40 mg (FIG. 3); approximately 40/20/20 mg (FIG. 4), etc.). Based on exposures of the various regimens, there is limited benefit in dosing beyond Day 5 for a typical exacerbation.
# p3813 = p3813 (Homo sapiens, UniProt Q15759); assay: p3813 kinase K (Ki) and IC50 values; type: biochemical
# p38a and p3813 = assay: Estimated enzyme inhibition from drug levels relative to Ki and IC50
# Experimental: The concentration based on free fraction is at or above 740 nM for the duration of the dosing interval. Cmax is approximately 2 μM based on the first dose.
# [2] = Plasma protein binding, free fraction in human plasma samples; type: in vitro ADME
# [3] = Oral bioavailability in the dog; details: in vivo, estimated
# p38a = p38a (Homo sapiens, UniProt Q16539); assay: p38a kinase K (Ki) and IC50 values; type: biochemical
# [4] = Oral bioavailability in the monkey; details: in vivo, estimated
# [5] = Oral bioavailability in the rat; details: in vivo, estimated
# p3813, sequence (Q15759 whole entry): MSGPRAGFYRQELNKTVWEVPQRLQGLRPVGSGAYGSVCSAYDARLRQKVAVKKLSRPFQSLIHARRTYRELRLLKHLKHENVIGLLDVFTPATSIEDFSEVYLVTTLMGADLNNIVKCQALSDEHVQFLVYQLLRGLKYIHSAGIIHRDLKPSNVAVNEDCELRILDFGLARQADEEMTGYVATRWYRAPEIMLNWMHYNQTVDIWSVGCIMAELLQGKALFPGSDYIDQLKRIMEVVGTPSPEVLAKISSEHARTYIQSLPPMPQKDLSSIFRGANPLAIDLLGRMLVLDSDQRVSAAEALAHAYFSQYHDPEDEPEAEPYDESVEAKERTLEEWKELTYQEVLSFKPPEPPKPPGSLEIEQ
# p38a, sequence (Q16539 whole entry): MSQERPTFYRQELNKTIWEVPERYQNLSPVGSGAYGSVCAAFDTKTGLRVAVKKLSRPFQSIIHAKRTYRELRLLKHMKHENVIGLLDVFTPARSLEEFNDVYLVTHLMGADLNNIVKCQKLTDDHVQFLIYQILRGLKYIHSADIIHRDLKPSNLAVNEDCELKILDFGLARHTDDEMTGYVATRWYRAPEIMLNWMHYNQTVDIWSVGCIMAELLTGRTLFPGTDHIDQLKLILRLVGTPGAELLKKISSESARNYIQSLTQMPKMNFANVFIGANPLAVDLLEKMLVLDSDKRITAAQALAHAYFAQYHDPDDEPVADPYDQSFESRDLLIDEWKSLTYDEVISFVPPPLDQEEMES
structure (smiles),measurement,setting,value
Cc1ccc(C(=O)NC2CC2)cc1-n1ncc(C(=O)c2cccc(C#N)c2)c1N [3-[5-amino-4-(3-cyanobenzoyl)-pyrazol-1-yl]-N-cyclopropyl-4-methylbenzamide],drug levels maintained,"[1]; dosing at Day 1, 3 and 5",above 220 ng/mL
same,plasma concentration,"[1]; dosing at Day 1, 3 and 5",5700 nM
same,concentration based on free fraction,[1]; for the duration of the dosing interval,≥ 740 nM
same,Cmax,"[1]; human, plasma, oral, based on the first dose",~2000 nM
same,IC50,p3813,106 nM
same,Ki,p3813,72 nM
same,duration of >99% enzyme inhibition,p38a and p3813,6 days
same,enzyme inhibition,p38a and p3813,> 99%
same,fraction unbound,[2],0.13 to 0.25
same,bioavailability,[3],87%
same,IC50,p38a,37 nM
same,Ki,p38a,49 nM
same,bioavailability,[4],90%
same,bioavailability,[5],93%
